Values quoted from earlier work as cited in article PMC10593844, “Structure-function analyses reveal key molecular determinants of HIV-1 CRF01_AE resistance to the entry inhibitor temsavir” (Nature Communications, 2023).

What was measured:
[1] = system: laboratory-adapted NL4-3 HIV-1 strain; design: method as in PMID 30604750; details: cited from earlier work
CRF01_AE strains = system: CRF01_AE strains; design: method as in PMID 30604750; details: range over CRF01_AE strains; cited from earlier work

SMILES	fold greater inhibition than temsavir [1]	IC50 (CRF01_AE strains)
COc1cnc(-c2csc(CN(C)CCCN(C)C)n2)c2[nH]cc(C(=O)C(=O)N3CCC(=C(C#N)c4ccccc4)CC3)c12 [BMS-814508]	4 fold	–
COc1cnc(-c2csc(C(=O)NCCO)n2)c2[nH]cc(C(=O)C(=O)N3CCC(=C(C#N)c4ccccc4)CC3)c12 [BMS-818251]	~ 100 fold	32 to 733 nM
